Measurements reported in patent US4371537A, “Sulfur-substituted phenoxypyridines having antiviral activity” (The Dow Chemical Company, priority 1981, dated 1983).
≈ marks a conversion by molar mass, not a printed value.

Assays:
[1] = system: 20 different rhinoviruses; experiment: Summary of WI-38 tissue culture testing against 20 rhinoviruses; type: cell-based; details: 25 μg/ml; of 20 rhinoviruses
Method: (§1) The test compound was dissolved in an appropriate solvent (generally dimethyl sulfoxide) and incubated at 56° C. for at least 15 minutes and this solution was then used to prepare various test solutions having the desired concentration of test compound in preheated WI maintenance medium (49% Eagles, 49% medium 199, 2% fetal calf serum and antibiotics).
(§2) Triplicate cell culture tubes (WI-38 human embryonic lung cell culture tubes) were fed with 1 ml of medium containing the compound at specified concentrations and inoculated with 3-300 TCID50 (3-300 times the tissue culture infective dose 50, i.e., the dose required to infect 50% of the cell cultures tested). Simultaneous viral titrations were performed. The tissue cultures were supplemented with fresh medium when necessary (around 3-4 days) until viral titrations were completed.
(§3) The cell culture tubes were examined dialy for cytopathic effect. […] Comparisons were made at that time with the percentage of cell sheet destruction in tubes containing virus compound mixtures. Observed differences of 75% or more were graded "+", 74-50% as "±", and less than 50% as "-" inhibition.

Coxsackie A21 virus = experiment: Continuous Oral Feeding test in mice challenged IP with Coxsackie A21 virus; type: in vivo; details: po, 0.06 % in diet, 240 h
Method: Some of the compounds were also tested in animals utilizing the following procedure, hereainafter referred to as the "Continuous Oral Feeding" test. Coxsackie A21 virus grown on HeLa cells was administered at a concentration that produces 80 to 100% deaths in mice weighing 8 to 12 grams within 10 days, when the mice are injected (IP) with 0.2 ml of virus preparation. Mice were placed on diets containing test compound dispersed in plain commercially available rodent mash chow at a concentration of 0.06% (weight percent) on day 0. On day 1 the mice were challenged with the virus preparation, 0.2 ml/mouse, (IP). Deaths in both control and experimental groups were recorded for the 10 days and the results analyzed by a chi-square (.chi.^2) test. Chi-square values greater than 3.84 indicate the compound is active (95% confidence level).

Cox A21 = experiment: Single Oral Dose test in mice challenged IP with Cox A21; type: in vivo, Swiss male mice; details: >3.84 significant (95% confidence level)
Method: In addition, some of the compounds were tested in animals utilizing the following procedure, hereinafter referred to as the "Single Oral Dose" test. Swiss male mice, 8-12 grams in weight were challenged intraperitoneally (IP) with 0.2 ml of a normally lethal dose, i.e., a virus dose sufficient to cause […].80-100% mortality in infected animals within 10 days of challenge of Cox A21, in phosphate buffered saline containing 1% heat inactivated fetal calf serum. Three hours later mice were treated orally (P.O.) with 0.2 ml of compound suspended in 0.5% hydroxypropyl methylcellulose (Methocel) or with 0.2 ml of 0.5% Methocel containing no compound. […] Mice were observed daily for 7-10 days post-challenge and deaths recorded. A modified Mantel-Haenzel combined chi-square procedure was used to determine significant difference between virus control and treated groups. Chi-square values greater than 3.84 are considered significant (95% confidence level) in this test.

[2] = system: rhinovirus type 64 (RV-64); experiment: Tissue culture testing, rhinovirus type 64 in HeLa cells; type: cell-based; details: Enterovirus, 48 and 72 hours, NA = not active at the standard test conditions, read-out: RV-64: lowest concentration of the compound necessary to cause a 50 percent reduction in cytopathic effect
Method: (§4) Monolayered HeLa cells in 16 millimeter (mm) tissue culture dishes were treated with 1 ml of culture medium (Eagles medium supplemented with fetal calf serum) containing subject compound at an appropriate concentration or containing no compound at all. Culture media such as those described herein are more fully described in standard texts, as for example, Kuchler's Biochemical Methods in Cell Culture and Virology, Dowden, Hutchinson and Ross, Inc., Stroudsberg, PA (1977). Following treatment, cells were challenged with 0.05 ml of rhinovirus type 1A (RV-1A), rhinovirus type 2 (RV-2) or Coxsackie A21 virus (Cox A21) in culture medium. Some of the compounds were also tested against rhinovirus type 5 (RV-5), rhinovirus type 8 (RV-8) or rhinovirus type 64 (RV-64). Cell controls received no viruses.
(§5) ^2 Lowest concentration of the compound (μg/ml) necessary to cause

[3] = system: Coxsackie A21 virus (Cox A21); experiment: Tissue culture testing, Coxsackie A21 virus in HeLa cells; type: cell-based; details: 48 and 72 hours, NA = not active at the standard test conditions, read-out: Cox A21: lowest concentration of the compound necessary to cause a 50 percent reduction in cytopathic effect
Method: as §4, §5

rhinovirus type 2 (RV-2) = experiment: Tissue culture testing, rhinovirus type 2 in HeLa cells; type: cell-based; details: Enterovirus, 48 and 72 hours, NA = not active at the standard test conditions, read-out: RV-2: lowest concentration of the compound necessary to cause a 50 percent reduction in cytopathic effect
Method: as §4, §5

[4] = system: rhinovirus type 1A (RV-1A); experiment: Tissue culture testing, rhinovirus type 1A in HeLa cells; type: cell-based; details: Enterovirus, 48 and 72 hours, NA = not active at the standard test conditions, read-out: RV-1A: lowest concentration of the compound necessary to cause a 50 percent reduction in cytopathic effect
Method: as §4, §5

[5] = Cytotoxicity in tissue culture testing (HeLa monolayers); type: cell-based; details: human; HeLa cells; observed at 48 and 72 hours post-treatment; read-out: Cytotoxicity: concentration of the compound found to be toxic to the cell
Method: as §4
^1 Cytotoxicity figures represent the concentration of the compound, […]

rhinovirus type 8 (RV-8) = experiment: Tissue culture testing, rhinovirus type 8 in HeLa cells; type: cell-based; details: Enterovirus, 48 and 72 hours, NA = not active at the standard test conditions, read-out: RV-8: lowest concentration of the compound necessary to cause a 50 percent reduction in cytopathic effect
Method: as §4, §5

rhinovirus type 5 (RV-5) = experiment: Tissue culture testing, rhinovirus type 5 in HeLa cells; type: cell-based; details: Enterovirus, 48 and 72 hours, NA = not active at the standard test conditions, read-out: RV-5: lowest concentration of the compound necessary to cause a 50 percent reduction in cytopathic effect
Method: as §4, §5

Rhinovirus Type 29 = experiment: Inhibition of cytopathic effect in WI-38 cell culture tubes, rhinovirus type 29; type: cell-based; details: Enterovirus; 12.5 μg/ml; WI-38 cells; read-out: Inhibition grade, Rhinovirus Type 29
Method: as §1, §2, §3

Rhinovirus Type 8 = experiment: Inhibition of cytopathic effect in WI-38 cell culture tubes, rhinovirus type 8; type: cell-based; details: Enterovirus; 12.5 μg/ml; WI-38 cells; read-out: Inhibition grade, Rhinovirus Type 8
Method: as §1, §2, §3

Rhinovirus Type 58 = experiment: Inhibition of cytopathic effect in WI-38 cell culture tubes, rhinovirus type 58; type: cell-based; details: Enterovirus; 12.5 μg/ml; WI-38 cells; read-out: Inhibition grade, Rhinovirus Type 58
Method: as §1, §2, §3

Rhinovirus Type 64 = experiment: Inhibition of cytopathic effect in WI-38 cell culture tubes, rhinovirus type 64; type: cell-based; details: Enterovirus; 12.5 μg/ml; WI-38 cells; read-out: Inhibition grade, Rhinovirus Type 64
Method: as §1, §2, §3

Rhinovirus Type 75 = experiment: Inhibition of cytopathic effect in WI-38 cell culture tubes, rhinovirus type 75; type: cell-based; details: Enterovirus; 12.5 μg/ml; WI-38 cells; read-out: Inhibition grade, Rhinovirus Type 75
Method: as §1, §2, §3

Rhinovirus Type 4 = experiment: Inhibition of cytopathic effect in WI-38 cell culture tubes, rhinovirus type 4; type: cell-based; details: Enterovirus; 12.5 μg/ml; WI-38 cells; read-out: Inhibition grade, Rhinovirus Type 4
Method: as §1, §2, §3

Hanks Untyped = experiment: Inhibition of cytopathic effect in WI-38 cell culture tubes, Hanks Untyped; type: cell-based, rhinovirus; details: Enterovirus; 12.5 μg/ml; WI-38 cells; read-out: Inhibition grade, Hanks Untyped
Method: as §1, §2, §3

Rhinovirus Type 74 = experiment: Inhibition of cytopathic effect in WI-38 cell culture tubes, rhinovirus type 74; type: cell-based; details: Enterovirus; 12.5 μg/ml; WI-38 cells; read-out: Inhibition grade, Rhinovirus Type 74
Method: as §1, §2, §3

Rhinovirus Type 19 = experiment: Inhibition of cytopathic effect in WI-38 cell culture tubes, rhinovirus type 19; type: cell-based; details: Enterovirus; 12.5 μg/ml; WI-38 cells; read-out: Inhibition grade, Rhinovirus Type 19
Method: as §1, §2, §3

Rhinovirus Type 10 = experiment: Inhibition of cytopathic effect in WI-38 cell culture tubes, rhinovirus type 10; type: cell-based; details: Enterovirus; 12.5 μg/ml; WI-38 cells; read-out: Inhibition grade, Rhinovirus Type 10
Method: as §1, §2, §3

Rhinovirus Type 21 = experiment: Inhibition of cytopathic effect in WI-38 cell culture tubes, rhinovirus type 21; type: cell-based; details: Enterovirus; 12.5 μg/ml; WI-38 cells; read-out: Inhibition grade, Rhinovirus Type 21
Method: as §1, §2, §3

Rhinovirus Type 56 = experiment: Inhibition of cytopathic effect in WI-38 cell culture tubes, rhinovirus type 56; type: cell-based; details: Enterovirus; 12.5 μg/ml; WI-38 cells; read-out: Inhibition grade, Rhinovirus Type 56
Method: as §1, §2, §3

Rhinovirus Type 59 = experiment: Inhibition of cytopathic effect in WI-38 cell culture tubes, rhinovirus type 59; type: cell-based; details: Enterovirus; 12.5 μg/ml; WI-38 cells; read-out: Inhibition grade, Rhinovirus Type 59
Method: as §1, §2, §3

Rhinovirus Type 68 = experiment: Inhibition of cytopathic effect in WI-38 cell culture tubes, rhinovirus type 68; type: cell-based; details: Enterovirus; 12.5 μg/ml; WI-38 cells; read-out: Inhibition grade, Rhinovirus Type 68
Method: as §1, §2, §3

Rhinovirus Type 6 = experiment: Inhibition of cytopathic effect in WI-38 cell culture tubes, rhinovirus type 6; type: cell-based; details: Enterovirus; 12.5 μg/ml; WI-38 cells; read-out: Inhibition grade, Rhinovirus Type 6
Method: as §1, §2, §3

Rhinovirus Type 39 = experiment: Inhibition of cytopathic effect in WI-38 cell culture tubes, rhinovirus type 39; type: cell-based; details: Enterovirus; 12.5 μg/ml; WI-38 cells; read-out: Inhibition grade, Rhinovirus Type 39
Method: as §1, §2, §3

Rhinovirus Type 13 = experiment: Inhibition of cytopathic effect in WI-38 cell culture tubes, rhinovirus type 13; type: cell-based; details: Enterovirus; 12.5 μg/ml; WI-38 cells; read-out: Inhibition grade, Rhinovirus Type 13
Method: as §1, §2, §3

Rhinovirus Type 17 = experiment: Inhibition of cytopathic effect in WI-38 cell culture tubes, rhinovirus type 17; type: cell-based; details: Enterovirus; 12.5 μg/ml; WI-38 cells; read-out: Inhibition grade, Rhinovirus Type 17
Method: as §1, §2, §3

Rhinovirus Type 60 = experiment: Inhibition of cytopathic effect in WI-38 cell culture tubes, rhinovirus type 60; type: cell-based; details: Enterovirus; 12.5 μg/ml; WI-38 cells; read-out: Inhibition grade, Rhinovirus Type 60
Method: as §1, §2, §3

Rhinovirus Type 81 = experiment: Inhibition of cytopathic effect in WI-38 cell culture tubes, rhinovirus type 81; type: cell-based; details: Enterovirus; 12.5 μg/ml; WI-38 cells; read-out: Inhibition grade, Rhinovirus Type 81
Method: as §1, §2, §3

[6] = 600 mg/kg P.O. 3 h after IP challenge

Structure (SMILES): CS(=O)(=O)c1ccc(Oc2ccc(C(=O)c3ccccc3)cc2)nc1 [(4-((5-(methylsulfonyl)-2-pyridinyl)oxy)phenyl)phenylmethanone]
- number of test rhinoviruses against which the compound was graded "+" [1]: 13 test rhinoviruses
- number of test rhinoviruses against which the compound was graded "±" [1]: 3

Structure (SMILES): CS(=O)(=O)c1ccc(Oc2ccc(Br)cc2)nc1 [Example 29, 2-(4-bromophenoxy)-5-(methylsulfonyl)pyridine]
- Continuous Oral Feeding X^2 (chi-square, deaths vs control) (Coxsackie A21 virus): 20.885
- Single Oral Dose X^2 (chi-square, deaths vs virus control) (Cox A21; [6]): 5.275
- EC50 [2]: 0.625 µg/mL (≈ 1.9 µM)
- EC50 [3]: 5 µg/mL (≈ 15.2 µM)
- EC50 (rhinovirus type 2 (RV-2)): 0.625 µg/mL (≈ 1.9 µM)
- EC50 [4]: 0.625 µg/mL (≈ 1.9 µM)
- MCC [5]: 50 µg/mL
- EC50 (rhinovirus type 8 (RV-8)): 6.25 µg/mL (≈ 19 µM)
- EC50 (rhinovirus type 5 (RV-5)): 25 µg/mL (≈ 76.2 µM)

Structure (SMILES): CS(=O)(=O)c1ccc(Oc2ccc(Cl)cc2)nc1 [Example 32, 2-(4-chlorophenoxy)-5-(methylsulfonyl)pyridine]
- inhibition at 12.5 µg/mL (Rhinovirus Type 29): ≥ 75%
- inhibition at 12.5 µg/mL (Rhinovirus Type 8): < 50%
- inhibition at 12.5 µg/mL (Rhinovirus Type 58): ≥ 75%
- inhibition at 12.5 µg/mL (Rhinovirus Type 64): ≥ 75%
- inhibition at 12.5 µg/mL (Rhinovirus Type 75): < 50%
- Single Oral Dose X^2 (chi-square, deaths vs virus control) (Cox A21; 200 mg/kg P.O. 3 h after IP challenge): 52.866
- inhibition at 12.5 µg/mL (Rhinovirus Type 4): ≥ 75%
- inhibition at 12.5 µg/mL (Hanks Untyped): ≥ 75%
- inhibition at 12.5 µg/mL (Rhinovirus Type 74): ≥ 75%
- inhibition at 12.5 µg/mL (Rhinovirus Type 19): ≥ 75%
- inhibition at 12.5 µg/mL (Rhinovirus Type 10): ≥ 75%
- EC50 [2]: 1.25 µg/mL (≈ 4.41 µM)
- EC50 [3]: 3.12 µg/mL (≈ 11 µM)
- inhibition at 12.5 µg/mL (Rhinovirus Type 21): 50 to 74%
- inhibition at 12.5 µg/mL (Rhinovirus Type 56): ≥ 75%
- EC50 (rhinovirus type 2 (RV-2)): 2.5 µg/mL (≈ 8.81 µM)
- inhibition at 12.5 µg/mL (Rhinovirus Type 59): ≥ 75%
- inhibition at 12.5 µg/mL (Rhinovirus Type 68): ≥ 75%
- inhibition at 12.5 µg/mL (Rhinovirus Type 6): 50 to 74%
- EC50 [4]: 1.25 µg/mL (≈ 4.41 µM)
- MCC [5]: 50 µg/mL
- inhibition at 12.5 µg/mL (Rhinovirus Type 39): < 50%
- inhibition at 12.5 µg/mL (Rhinovirus Type 13): < 50%
- inhibition at 12.5 µg/mL (Rhinovirus Type 17): ≥ 75%
- inhibition at 12.5 µg/mL (Rhinovirus Type 60): ≥ 75%
- inhibition at 12.5 µg/mL (Rhinovirus Type 81): 50 to 74%

Structure (SMILES): CCS(=O)(=O)c1ccc(Oc2ccc(Oc3ccccc3)cc2)nc1 [Example 44, 5-(ethylsulfonyl)-2-(4-phenoxyphenoxy)pyridine]
- Continuous Oral Feeding X^2 (chi-square, deaths vs control) (Coxsackie A21 virus): 1.58
- Single Oral Dose X^2 (chi-square, deaths vs virus control) (Cox A21; [6]): 0.196
- EC50 [3]: 3.12 µg/mL (≈ 8.79 µM)
- EC50 (rhinovirus type 2 (RV-2)): 3.12 µg/mL (≈ 8.79 µM)
- EC50 [4]: 6.25 µg/mL (≈ 17.6 µM)
- MCC [5]: 6.25 µg/mL
- EC50 (rhinovirus type 8 (RV-8)): 6.25 µg/mL (≈ 17.6 µM)
